The source of these data is patent publication US20220280590A1, “USE OF INHIBITORS OF YAP AND SOX2 FOR THE TREATMENT OF CANCER” (Georgetown University, priority 2019, published 2022).

Test [1] concerns primary KYYF pancreatic tumor cells. The test can be described thus: Percent of global DNA methylation in KYYF cells. The settings on record: 5 μM, 3 days versus DMSO. The class given is cell-based, mouse. An excerpt:
(§1) (*P<0.05; **P<0.005; ***P<0.0005; ns: not significant; error bars indicate standard deviation).
(§2) Quantitative methylation-specific PCR (qMSP) was used to confirm that the promoters of acinar lineage genes Ptf1a and Bhlha15 became heavily methylated in KF pancreatic tumors in contrast to wild type (WT) pancreata, which was partially reversed in KYYF pancreata after TAM treatment (FIG. 5L). To directly assess the effects of DNA de-methylation on the expression of pancreatic lineage genes, YAP^+ primary pancreatic tumor cells were treated with vehicle control or DNA methylation inhibitor 5-azacytidine (5-Aza). […] The levels of global DNA methylation in primary KYYF pancreatic tumor cells were measured following treatment with Ad-GFP or Ad-CRE, and it was confirmed that YAP ablation induced a rapid and significant decline in global DNA methylation, which partially recovered over time (FIG. 5B).

Test [2] has the same test system. Briefly: Relative mRNA levels of lineage genes and SOX2 in KYYF pancreatic tumor cells. It counts as cell-based, mouse. The conditions noted are these: YAP+ primary pancreatic tumor cells, 0.5, 2, 5 μM for 3 days versus DMSO.
Source text: as §1, §2

For test [3], the system named is mT4, 08031-9, MD-MB-231, 786-O and HepG2 cells. Briefly: FACS analysis of relative ratios of control (RFP-) and YAP/TAZ-depleted (shY/T, RFP+) cancer cells in co-culture. It counts as cell-based. The settings on record: compared to vehicle, pancreatic, schwannoma, breast, kidney and liver cancer lines. On the procedure:
FACS analysis of the relative ratios of control (Ctrl, RFP-) or YAP/TAZ-depleted (shY/T, RFP^+) cancer cells after co-culturing in the presence of vehicle (Veh) or BE inhibitor mivebresib (Miv) was performed (n=3). […] The YAP/TAZ hairpin RNAs were fused with fluorescent protein RFP. […] (FIG. 8).
(In flow cytometry, cells or beads pass a laser one at a time.)

Test [4] relates to SOX2, SOX5, and TWIST2 in primary PDAC cell lines. Briefly: Western blot of pluripotent transcription factors in primary PDAC lines. It counts as cell-based. The conditions noted are these: after 24 hours, compared to DMSO control. On the procedure:
Western blot assay with indicated antibodies in four different primary PDAC lines expressing variable levels of SOX2/SOX5/TWIST2 after 24 hr treatment with DMSO (−) or Miv (+) is shown. Multiple primary PDAC cell lines were treated with BET inhibitor mivebresib.
A general note: In western blotting, separated proteins are transferred to a membrane and probed.

Each structure is given as a SMILES string.

For the compound `Nc1ncn([C@@H]2O[C@H](CO)[C@@H](O)[C@H]2O)c(=O)n1` [5-Aza, 5-azacytidine], the “global DNA methylation” value in test [1] is on record as “global DNA de-methylation”. Further, in test [2], the “expression of acinar and endocrine lineage genes and SOX2” value is “dose-dependent upregulation”.

Turning to `CCS(=O)(=O)Nc1ccc(Oc2ccc(F)cc2F)c(-c2cn(C)c(=O)c3[nH]ccc23)c1` [mivebresib], the “percentage of control (RFP-) relative to shY/T (RFP+) cancer cells” value in test [3] is given as “greater percentage of control (RFP^−) cancer cells relative to shY/T (RFP^+) cancer cells”. For the same compound, the “expression of pluripotent transcription factors SOX2, SOX5, and TWIST2” value in test [4] is given as “selectively reduced”.
